These are literature values, as cited in patent US20040202732A1, “Composition to promote weight loss” (priority 2003, published 2004).

The conditions of data set [1]: caffeine administration alone.
For data set [2] the following is noted: mice fed CLA supplemented diets for 28 days.
For data set [3] the following is noted: 4-week treatment.
The conditions of data set [4]: 12 weeks, fifty-three healthy men and women.
The conditions of data set [5]: 12 weeks, 3.4-g and higher CLA groups, sixty overweight or obese subjects.
The conditions of data set [6]: three daily doses for 2 weeks, exercise 90 minutes three times weekly.
In data set [7] the test system is prostaglandin E2 production.
In data set [8] the test system is IL-1.
Data set [9] concerns TNF-alpha.

Turning to `Cn1c(=O)c2c(ncn2C)n(C)c1=O` [caffeine], the “increased resting energy expenditure and fat oxidation” value in [1] is “did not occur”.
Conjugated Linoleic Acid [CLA]: in data set [2], the body mass entry is “maintained body mass”, the “increase of body protein” value is “up to 13%” and the “reduction of body fat” value is recorded as “up to 60%”. Besides, the reduction from waistlines entry in data set [3] (average) is “an average of one-inch reduction”. In addition, the “sagittal abdominal diameter (SAD)” value in data set [3] (twenty-five men with significant abdominal fat) is recorded as “significant reduction”. Besides, in [4], the “decrease of proportion of body fat” value was 3.8%. In [5], the “body fat mass (BFM)” value is listed as “significant reduction”. Also, in [6], the body weight loss entry is recorded as “no effects”. Further, the body fat entry in data set [6] (versus placebo) was “significantly reduced”. In data set [7], the “inhibition of prostaglandin E2 production” value is listed as “can inhibit”. In addition, in data set [8], the “inhibition of IL-1” value is on record as “can inhibit”.
With `O=C(O[C@@H]1Cc2c(O)cc(O)cc2O[C@@H]1c1cc(O)c(O)c(O)c1)c1cc(O)c(O)c(O)c1` [EGCG, epigallocatechin galate], the “inhibition of prostaglandin E2 production” value in [7] was “can inhibit”. The “inhibition of TNF-alpha” value in data set [9] is “can inhibit”.
